Test results reported in US11180510B2, “Xanthine derivatives and uses thereof as inhibitors of bromodomains of BET proteins” (Centre national de la recherche scientifique, priority 2017, dated 2021).
Like-named read-outs stand apart in the source and are kept apart here. Blank lines part the entries; values can stand above or below the molecule they belong to.

Columns and labels:
Type in all cases: binding
[1] = biological target: T1, BRD4(BD1) (Homo sapiens, UniProt O60885); assay: HTRF assay, BRD4(BD1)/histone peptide interaction; design: made in house; details: for IC50: HTRF; for Ratio 4-1 vs 4-2: selectivity Brd4(BD1) vs Brd4(BD2), HTRF IC50
Description: (§1) HTRF assays were performed in white 384 Well Small Volume™ HiBase Polystyrene Microplates (Greiner) with a total working volume of 20 μL. Compounds were dispensed, with 100 nL per well (0.5% final DMSO), from a concentration stock of 10 mM in 100% DMSO and with serial DMSO dilutions, using an Echo® 550 robot from the Access Labcyte platform (Labcyte) and based on the transfer of liquid by acoustic wave. Then, 19.5 μL of buffer is added, using a Multidrop Combi (Thermo Fisher Scientific). […] All HTRF reagents (donor and acceptor) were purchased from CisBio Bioassays and reconstituted according to the supplier protocols. The peptide was purchased from Genic Bio Synthetic. The BRD4(1) protein was produced and purified in the laboratory.
(§2) Percentage of inhibition was calculated using the following equation: % inhibition=[(compound signal)−(min signal)]/[(max signal)−(min signal)]*100, where ‘max signal’ is the signal ratio with the compound vehicle alone (DMSO) and ‘min signal’ the signal ratio without peptide.
(§3) Selectivity profiles of bromodomain inhibitors were performed as described in HTRF screen section. […] HTRF detection reagents (EPIgeneous™ Binding Domain kits) were purchased from Cisbio Bioassays and used according to supplier's protocol. GST tagged bromodomain proteins were purchased from BPS Bioscience and histone peptide from Genic Bio Synthetic.

[2] = biological target: Brd3(BD1) (Homo sapiens, UniProt Q15059); assay: HTRF BET selectivity profile, Brd3(BD1); design: GST tagged bromodomain proteins were purchased from BPS Bioscience; purchased BPS Bioscience; details: for Ratio 3-1 vs 3-2: selectivity Brd3(BD1) vs Brd3(BD2), HTRF IC50
Sequence of Brd3(BD1) (Q15059 34-140 limits assumed): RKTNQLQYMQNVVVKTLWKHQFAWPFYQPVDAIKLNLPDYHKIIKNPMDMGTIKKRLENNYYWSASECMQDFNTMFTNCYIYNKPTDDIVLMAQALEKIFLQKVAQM
Description: as §1, §2, §3

[3] = biological target: T2, Brdt(BD1) (Homo sapiens, UniProt Q58F21); assay: HTRF BET selectivity profile, Brdt(BD1)
T2 construct: GST tagged bromodomain proteins were purchased from BPS Bioscience; purchased BPS Bioscience
Description: (§4) HTRF assays were performed in white 384 Well Small Volume™ HiBase Polystyrene Microplates (Greiner) with a total working volume of 20 μL. Compounds were dispensed, with 100 nL per well (0.5% final DMSO), from a concentration stock of 10 mM in 100% DMSO and with serial DMSO dilutions, using an Echo® 550 robot from the Access Labcyte platform (Labcyte) and based on the transfer of liquid by acoustic wave. Then, 19.5 μL of buffer is added, using a Multidrop Combi (Thermo Fisher Scientific). Finally, for each assay, 200 nL of master mix (protein+donor+acceptor) and 200 nL of peptide Is added in the assay wells according to the final concentration and buffer described in Table 3, using the Echo® 550 robot (Labcyte). The IC50 measurements were performed in triplicates (Table 2 and 3). All HTRF reagents (donor and acceptor) were purchased from CisBio Bioassays and reconstituted according to the supplier protocols. The peptide was purchased from Genic Bio Synthetic. The BRD4(1) protein was produced and purified in the laboratory. HTRF signals were measured, after a final incubation (3 h or 6 h or overnight at room temperature or 4° C., according to the bromodomain), using a PHERAstar FS (BMG Labtech) with an excitation filter at 337 nm and fluorescence wavelength measurement at 620 and 665 nm, an integration delay of 60 μs and an integration time of 500 μs. Results were analyzed with a two-wavelengths signal ratio: [intensity (665 nm)/intensity (620 nm)]*104.
as §2, §3

[4] = biological target: T3, Brd2(BD2) (Homo sapiens, UniProt P25440); assay: HTRF BET selectivity profile, Brd2(BD2); details: read-out: Brd2(BD2) IC50
T3 construct: GST tagged bromodomain proteins were purchased from BPS Bioscience; purchased BPS Bioscience
T3 sequence (P25440 344-453 limits assumed): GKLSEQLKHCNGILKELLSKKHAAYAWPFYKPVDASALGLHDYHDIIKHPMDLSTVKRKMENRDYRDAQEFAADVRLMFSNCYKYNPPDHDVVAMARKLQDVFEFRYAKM
Description: as §1, §2, §3

[5] = biological target: T1, BRD4(BD1); assay: Isothermal Titration Calorimetry; details: ITC; read-out: Binding affinity (Kd) to BRD4(1) by Isothermal Titration Calorimetry
Description: FIG. 1. Isothermal Titration Calorimetry (ITC) of 43c. Thermogram (top) and non-linear least squares fit model of the integrated data (bottom) at 15° C. of Brd4 (BD1) […] as a function of the molar ratio of ligand to the protein.
ITC was used to evaluate the thermodynamics parameters of the binding between BRD4 (BD1) and the selected compounds. Titrations were carried out on a MicroCal ITC200 microcalorimeter (GE Healthcare, Piscataway, N.J.). Each experiment was designed using a titrant concentration (protein in the syringe generally between 100 and 400 μM) set 10 to 15 times the analyte concentration (compound in the cell generally between 10 and 40 μM) and using 13 injections at 25° C. A first small injection (generally 0.2 μL) was included in the titration protocol in order to remove air bubbles trapped in the syringe prior titration. Raw data were scaled after setting the zero to the titration saturation heat value. Integrated raw ITC data were fitted to a one site non-linear least squares fit model using the MicroCal Origin plugin as implemented in Origin 7 (Origin Lab). Finally, ΔG and TΔS values were calculated from the fitted ΔH and KA values using the equations ΔG=−R.T.inKA and ΔG=ΔH−TΔS.

[6] = biological target: T4, Brd2(BD1) (Homo sapiens, UniProt P25440); assay: HTRF BET selectivity profile, Brd2(BD1); details: for IC50: read-out: Brd2(BD1) IC50; for Ratio 2-1 vs 2-2: selectivity Brd2(BD1) vs Brd2(BD2), HTRF IC50
T4 construct: GST tagged bromodomain proteins were purchased from BPS Bioscience; purchased BPS Bioscience
T4 sequence (P25440 74-180 limits assumed): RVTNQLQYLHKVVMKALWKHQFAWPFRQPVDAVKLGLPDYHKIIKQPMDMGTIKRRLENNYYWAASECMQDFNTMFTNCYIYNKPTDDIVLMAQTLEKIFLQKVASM
Description: as §1, §2, §3

[7] = biological target: T5, Brd4(BD2) (Homo sapiens, UniProt O60885); assay: HTRF BET selectivity profile, Brd4(BD2)
T5 construct: GST tagged bromodomain proteins were purchased from BPS Bioscience; purchased BPS Bioscience
Description: as §4, §2, §3

[8] = biological target: T6, Brd3(BD2) (Homo sapiens, UniProt Q15059); assay: HTRF BET selectivity profile, Brd3(BD2)
T6 construct: GST tagged bromodomain proteins were purchased from BPS Bioscience; purchased BPS Bioscience
T6 sequence (Q15059 306-415 limits assumed): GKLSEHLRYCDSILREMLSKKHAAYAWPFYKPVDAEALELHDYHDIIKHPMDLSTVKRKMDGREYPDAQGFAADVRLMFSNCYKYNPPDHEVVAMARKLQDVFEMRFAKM
Description: as §4, §2, §3

[9] = triplicates, NA = IC50 > maximal concentration of compound used
[10] = mean of three experiments, NA = IC50 > 50 μM, read-out: Brd4(8D1) IC50

- IC50 [1, 9]: 1.4 µM
SMILES: CCn1cnc2c1c(=O)[nH]c(=O)n2Cc1ccc(CNS(=O)(=O)CC2CCCC2)cc1 [Compound 21c]

- IC50 [1, 9]: 29 µM
SMILES: O=C1CCCc2cc(S(=O)(=O)NCC3CCC(C(=O)NCc4ccccn4)CC3)ccc2N1 (stereo not shown) [Compound 6a]

- IC50 [1, 9]: > 25 µM
SMILES: O=C1CCCc2cc(S(=O)(=O)NCc3ccc(C(=O)NCc4ccncc4)cc3)ccc2N1 [Compound 14c]

- IC50 [1, 9]: > 50 µM
SMILES: CCn1cnc2c1c(=O)[nH]c(=O)n2Cc1ccc(CNC(=O)[C@H]2CC[C@H](CN)CC2)cc1 [Compound 41a]

- IC50 [2]: 130 nM
- Ratio 3-1 vs 3-2 [2]: 22
- IC50 [3]: 1100 nM
- IC50 [4]: 2400 nM
- Kd [5]: 110 nM
- IC50 [1, 10]: 0.096 µM
- IC50 [1, 9]: 0.096 µM
- Ratio 4-1 vs 4-2 [1]: 34
- IC50 [6]: 260 nM
- Ratio 2-1 vs 2-2 [6]: 9
- IC50 [7]: 3.3 µM
- IC50 [8]: 2900 nM
SMILES: CCn1cnc2c1c(=O)[nH]c(=O)n2Cc1ccc(CNS(=O)(=O)c2ccc(OC3CCOCC3)cc2)cc1 [Compound 43b]

- IC50 [1, 9]: > 25 µM
SMILES: O=C1CCCc2cc(S(=O)(=O)NCc3ccc(C(=O)NCc4ccccn4)cc3)ccc2N1 [Compound 14a]

- IC50 [1, 9]: 23 µM
SMILES: O=C1CCCc2cc(S(=O)(=O)NCC3CCC(C(=O)NCc4cccc(O)c4)CC3)ccc2N1 (stereo not shown) [Compound 7c]

- IC50 [1, 9]: > 50 µM
SMILES: O=C1CCCc2cc(S(=O)(=O)N3CCC(C(=O)NCCc4cccs4)CC3)ccc2N1 [Compound 11c]

- IC50 [2]: 5710 nM
- Ratio 3-1 vs 3-2 [2]: 0.4
- IC50 [3]: 3360 nM
- IC50 [4]: 3080 nM
- IC50 [1, 10]: 3.46 µM
- IC50 [1, 9]: 3.5 µM
- Ratio 4-1 vs 4-2 [1]: 1
- IC50 [6]: 4350 nM
- Ratio 2-1 vs 2-2 [6]: 0.7
- IC50 [7]: 4.21 µM
- IC50 [8]: 2130 nM
SMILES: CCn1cnc2c1c(=O)[nH]c(=O)n2Cc1ccc(CNS(=O)(=O)c2ccc3c(c2)CCCC(=O)N3)c2ccccc12 [Compound 31c]

- IC50 [1, 9]: 1.8 µM
SMILES: CCn1cnc2c1c(=O)[nH]c(=O)n2Cc1ccc(CNC(=O)[C@H](O)c2ccc(C)cc2)cc1 [Compound 35c]

- IC50 [1, 9]: 4.3 µM
SMILES: CCn1cnc2c1c(=O)[nH]c(=O)n2Cc1ccc(CNC(=O)C2CCN(C)C2)cc1 (stereo not shown) [Compound 34a]

- IC50 [1, 9]: > 50 µM
SMILES: O=C1CCCc2cc(S(=O)(=O)NCC3CCC(C(=O)NCc4cccs4)CC3)ccc2N1 (stereo not shown) [Compound 5a]

- IC50 [1, 9]: 8.1 µM
SMILES: CCn1cnc2c1c(=O)[nH]c(=O)n2Cc1ccc(CNC(=O)[C@H]2CC[C@H](CNC(=O)OC(C)(C)C)CC2)cc1 [Compound 38b]
